Results: US20190231751A1, “TREATMENT OF FIBROTIC DISORDERS WITH JUN N-TERMINAL KINASE INHIBITORS” (Imago Pharmaceuticals, Inc., priority 2016, published 2019)

Key:
Assay type in all cases: biochemical
JNK3 = JNK3 (Homo sapiens, UniProt P53779); assay: In vitro JNK3 inhibition (Table 1)
Procedure: (§1) In vitro assays for the determination of JNK activities are known in the art and exemplary assay formats are described herein.
(§2) IC50 values in Table 1 were determined using the procedures as described in U.S. Pat. No. 8,450,353.

JNK1 = JNK1 (Homo sapiens, UniProt P45983); assay: In vitro JNK1 inhibition (Table 1)
Procedure: as §1, §2

JNK2 = JNK2 (Homo sapiens, UniProt P45984); assay: In vitro JNK2 inhibition (Table 1)
Procedure: as §1, §2

Chain of JNK1 (P45983 whole entry, species assumed): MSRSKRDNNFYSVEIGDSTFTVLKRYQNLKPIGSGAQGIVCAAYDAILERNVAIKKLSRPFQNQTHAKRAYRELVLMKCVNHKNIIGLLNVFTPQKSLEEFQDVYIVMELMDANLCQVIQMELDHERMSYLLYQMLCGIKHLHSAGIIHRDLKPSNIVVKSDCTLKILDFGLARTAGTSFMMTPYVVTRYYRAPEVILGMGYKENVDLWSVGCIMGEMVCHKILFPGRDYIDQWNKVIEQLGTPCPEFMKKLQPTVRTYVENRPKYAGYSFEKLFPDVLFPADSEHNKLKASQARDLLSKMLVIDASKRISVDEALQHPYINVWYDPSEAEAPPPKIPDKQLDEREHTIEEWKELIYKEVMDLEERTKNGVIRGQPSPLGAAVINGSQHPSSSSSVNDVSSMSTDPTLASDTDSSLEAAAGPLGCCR
Chain of JNK3 (P53779 whole entry, species assumed): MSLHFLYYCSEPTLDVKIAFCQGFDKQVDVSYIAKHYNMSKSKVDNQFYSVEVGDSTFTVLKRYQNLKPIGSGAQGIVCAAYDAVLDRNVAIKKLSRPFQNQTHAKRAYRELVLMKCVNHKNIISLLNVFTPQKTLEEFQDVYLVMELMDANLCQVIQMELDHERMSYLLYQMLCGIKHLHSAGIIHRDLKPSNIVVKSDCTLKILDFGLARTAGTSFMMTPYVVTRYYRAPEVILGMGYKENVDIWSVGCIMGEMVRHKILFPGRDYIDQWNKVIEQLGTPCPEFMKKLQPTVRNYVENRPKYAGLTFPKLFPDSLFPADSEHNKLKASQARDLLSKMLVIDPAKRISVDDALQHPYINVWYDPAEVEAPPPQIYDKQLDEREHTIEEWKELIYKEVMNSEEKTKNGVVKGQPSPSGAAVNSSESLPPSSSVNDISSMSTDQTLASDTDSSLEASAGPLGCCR
Chain of JNK2 (P45984 whole entry, species assumed): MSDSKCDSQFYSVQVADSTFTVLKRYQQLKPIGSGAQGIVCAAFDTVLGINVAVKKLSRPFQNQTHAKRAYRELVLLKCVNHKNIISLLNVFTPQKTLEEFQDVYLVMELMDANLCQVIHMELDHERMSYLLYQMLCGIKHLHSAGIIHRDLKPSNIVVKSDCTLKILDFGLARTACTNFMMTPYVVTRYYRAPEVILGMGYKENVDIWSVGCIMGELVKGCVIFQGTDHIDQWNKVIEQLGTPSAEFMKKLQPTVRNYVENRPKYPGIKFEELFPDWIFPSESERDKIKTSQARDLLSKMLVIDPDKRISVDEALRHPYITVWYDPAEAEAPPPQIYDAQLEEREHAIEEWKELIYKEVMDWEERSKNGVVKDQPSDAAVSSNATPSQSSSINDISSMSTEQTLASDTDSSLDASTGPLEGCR

| SMILES | IC50 (JNK3) [µM] | IC50 (JNK1) [µM] | IC50 (JNK2) [µM] |
| --- | --- | --- | --- |
| O=C(Cn1c(=O)ccc2cnc(C(F)(F)F)cc21)Nc1scc(Br)c1-c1ncn[nH]1 [N-(4-bromo-3-(1H-1,2,4-triazol-5-yl)thiophen-2-yl)-2-(2-oxo-7-(trifluoromethyl)-1,6-naphthyridin-1(2H)-yl)acetamide] | < 0.1 | < 0.1 | < 0.1 |
| COc1ccc(CC(=O)Nc2sccc2-c2nn[nH]n2)cc1 [N-(3-(2H-tetrazol-5-yl)thiophen-2-yl)-2-(4-methoxyphenyl)-acetamide] |  |  | 10 to 50 |
| N#Cc1ccc2c(ccc(=O)n2CC(=O)Nc2scc(Br)c2-c2ncn[nH]2)c1 [N-(4-bromo-3-(1H-1,2,4-triazol-5-yl)thiophen-2-yl)-2-(6-cyano-2-oxoquinolin-1(2H)-yl)acetamide] | < 0.1 | < 0.1 | < 0.1 |
| O=C(Cn1c(=O)ccc2cc(C(F)(F)F)ccc21)N(CCCN1CCCC1)c1scc(Cl)c1-c1nc[nH]n1 [N-(4-chloro-3-(1H-1,2,4-triazol-3-yl)thiophen-2-yl)-2-(2-oxo-6-(trifluoromethyl)quinolin-1(2H)-yl)-N-(3-(pyrrolidin-1-yl)propyl)acetamide] | 0.1 to 10 | 0.1 to 10 | 0.1 to 10 |
| Cc1csc(NC(=O)Cc2cccc3ncccc23)c1-c1ncn[nH]1 [N-(4-methyl-3-(1H-1,2,4-triazol-5-yl)thiophen-2-yl)-2-(quinolin-5-yl)acetamide] |  |  | 0.1 to 10 |
| COc1ccc(CC(=O)Nc2ccsc2-c2nc(C(F)(F)F)n[nH]2)cc1 [2-(4-methoxyphenyl)-N-(2-(3-(trifluoromethyl)-1H-1,2,4-triazol-5-yl)thiophen-3-yl)acetamide] |  |  | 10 to 50 |
| COc1ccc(CC(=O)Nc2ccsc2-c2nc(C)n[nH]2)cc1 [2-(4-methoxyphenyl)-N-(2-(3-methyl-1H-1,2,4-triazol-5-yl)thiophen-3-yl)acetamide] |  |  | 0.1 to 10 |
| COc1ccc(CC(=O)Nc2ccsc2-n2cc(C)cn2)cc1 [2-(4-methoxyphenyl)-N-(2-(4-methyl-1H-pyrazol-1-yl)thiophen-3-yl)acetamide] |  |  | 10 to 50 |
| O=C(CN1C(=O)CCc2ccccc21)Nc1ccsc1-c1c[nH]cn1 [N-(2-(1H-imidazol-4-yl)thiophen-3-yl)-2-(2-oxo-3,4-dihydroquinolin-1(2H)-yl)acetamide] |  |  | 10 to 50 |
| Cc1csc(NC(=O)Cc2cccc3cnccc23)c1-c1nc2ccccc2s1 [N-(3-(benzo[d]thiazol-2-yl)-4-methylthiophen-2-yl)-2-(isoquinolin-5-yl)acetamide] |  |  | 10 to 50 |
| COc1ccc(CC(=O)Nc2ccsc2-c2ncco2)cc1 [2-(4-methoxyphenyl)-N-(2-(oxazol-2-yl)thiophen-3-yl)acetamide] |  |  | 10 to 50 |
| Cn1ncnc1-c1ncsc1NC(=O)Cc1cccc2cnccc12 [2-(isoquinolin-5-yl)-N-(4-(1-methyl-1H-1,2,4-triazol-5-yl)thiazol-5-yl)acetamide] |  |  | 0.1 to 10 |
| COc1ccc(CC(=O)Nc2ccsc2-c2nc(N)n[nH]2)cc1 [N-(2-(3-amino-1H-1,2,4-triazol-5-yl)thiophen-3-yl)-2-(4-methoxyphenyl)acetamide] |  |  | 0.1 to 10 |
| COc1ccc(CC(=O)Nc2ccsc2-c2nc(C(C)(C)C)n[nH]2)cc1 [N-(2-(3-tert-butyl-1H-1,2,4-triazol-5-yl)thiophen-3-yl)-2-(4-methoxyphenyl)acetamide] |  |  | 10 to 50 |
| Cc1nnc(-c2sccc2NC(=O)Cc2cccc3ccccc23)o1 [N-(2-(5-methyl-1,3,4-oxadiazol-2-yl)thiophen-3-yl)-2-(naphthalen-1-yl)acetamide] |  |  | 10 to 50 |
| N#Cc1csc(NC(=O)Cc2cccc3ncccc23)c1-c1cnccn1 [N-(4-cyano-3-(pyrazin-2-yl)thiophen-2-yl)-2-(quinolin-5-yl)acetamide] | < 0.1 | < 0.1 |  |
| Cn1ccnc1-c1sccc1NC(=O)Cc1cccc2ccccc12 [N-(2-(1-methyl-1H-imidazol-2-yl)thiophen-3-yl)-2-(naphthalen-1-yl)acetamide] | > 10 | > 10 |  |
| O=C(Cc1cccc2cnccc12)Nc1ccsc1-c1csc(Cl)n1 [N-(2-(2-chlorothiazol-4-yl)thiophen-3-yl)-2-(isoquinolin-5-yl)acetamide] |  |  | 10 to 50 |
| O=C(Cc1ccc2c(c1)OCCO2)Nc1ccsc1-c1ncn[nH]1 [N-(2-(1H-1,2,4-triazol-5-yl)thiophen-3-yl)-2-(2,3-dihydrobenzo[b][1,4]dioxin-6-yl)acetamide] |  |  | 0.1 to 10 |
| CN1CCN(CCCn2cnc(-c3c(Cl)csc3NC(=O)Cn3c(=O)ccc4cc(C(F)(F)F)ccc43)n2)CC1 [N-(4-chloro-3-(1-(3-(4-methylpiperazin-1-yl)propyl)-1H-1,2,4-triazol-3-yl)thiophen-2-yl)-2-(2-oxo-6-(trifluoromethyl)quinolin-1(2H)-yl)acetamide] | < 0.1 | < 0.1 |  |
| COc1ccc(CC(=O)Nc2ccsc2-c2nnc(C(C)C)o2)cc1 [N-(2-(5-isopropyl-1,3,4-oxadiazol-2-yl)thiophen-3-yl)-2-(4-methoxyphenyl)acetamide] | > 10 | > 10 |  |
| Cc1nc(-c2sccc2NC(=O)CN2C(=O)CCc3ccccc32)c[nH]1 [N-(2-(2-methyl-1H-imidazol-4-yl)thiophen-3-yl)-2-(2-oxo-3,4-dihydroquinolin-1(2H)-yl)acetamide] | > 10 | > 10 |  |
| COc1nc(-c2sccc2NC(=O)Cc2cccc3cnccc23)cs1 [2-(isoquinolin-5-yl)-N-(2-(2-methoxythiazol-4-yl)thiophen-3-yl)acetamide] |  |  | 10 to 50 |
| O=C(Cn1c(=O)ccc2cc(C(F)(F)F)ccc21)Nc1sc(Cl)cc1-c1ncn[nH]1 [N-(5-chloro-3-(1H-1,2,4-triazol-5-yl)thiophen-2-yl)-2-(2-oxo-6-(trifluoromethyl)quinolin-1(2H)-yl)acetamide] | 0.1 to 10 |  | 0.1 to 10 |
| O=C(Cn1c(=O)ccc2cc(C(F)(F)F)ccc21)Nc1ccsc1-c1cscn1 [2-(2-oxo-6-(trifluoromethyl)quinolin-1(2H)-yl)-N-(2-(thiazol-4-yl)thiophen-3-yl)acetamide] | < 0.1 | < 0.1 |  |
| Cc1n[nH]c(-c2sccc2NC(=O)Cc2ccc(N3CCCC3=O)cc2)n1 [N-(2-(3-methyl-H-1,2,4-triazol-5-yl)thiophen-3-yl)-2-(4-(2-oxopyrrolidin-1-yl)phenyl)acetamide] |  |  | 0.1 to 10 |
| O=C(Cc1cccc2cnccc12)Nc1scnc1-c1cscn1 [N-(4,4′-bithiazol-5-yl)-2-(isoquinolin-5-yl)acetamide] | < 0.1 | < 0.1 |  |
| O=C(Cc1cccc2ccccc12)Nc1ccsc1-c1nnco1 [N-(2-(1,3,4-oxadiazol-2-yl)thiophen-3-yl)-2-(naphthalen-1-yl)acetamide] |  |  | 10 to 50 |
| CCc1n[nH]c(-c2c(Cl)csc2NC(=O)CN2C(=O)CCc3ncccc32)n1 [N-(4-chloro-3-(3-ethyl-1H-1,2,4-triazol-5-yl)thiophen-2-yl)-2-(2-oxo-3,4-dihydro-1,5-naphthyridin-1(2H)-yl)acetamide] | < 0.1 | < 0.1 |  |
| COc1ccc(CC(=O)Nc2sccc2-c2nnn(C)n2)cc1 [2-(4-methoxyphenyl)-N-(3-(2-methyl-2H-tetrazol-5-yl)thiophen-2-yl)acetamide] |  |  | 10 to 50 |
